# In patent US20130196050A1, “SALTY TASTE ENHANCER” (AJINOMOTO CO., INC., priority 2010, published 2013):
# System: salty taste
# Assay: Sensory evaluation of salty taste-enhancing activity (quantitative sensory evaluation test)
# Format: in vivo, panelists
# Method: The strength of the salty taste enhancing activity of the compound of Example 35 was examined by a quantitative sensory evaluation test.
# The quantitative sensory evaluation test was performed as follows. The strength of the salty taste enhancing activity when the compound of Example 35 as a sample was mixed at 0.00005 to 0.0040 g/dl with distilled water containing sodium chloride (0.5 g/dl) was measured. Distilled water containing sodium chloride at 0.55 g/dl, 0.60 g/dl, 0.65 g/dl was used as a comparison target. Using a linear measurement method, the corresponding marks were put down as positions in the straight lines showing the sodium chloride concentrations of 1.0 time (0.50 g/dl), 1.1 times (0.55 g/dl), 1.2 times (0.60 g/dl), 1.3 times (0.65 g/dl). For sensory marks, the positions put down by the panelists were measured, averaged and shown as the salty taste enhancement ratio (times) wherein n=5. […] The “initial taste” is the evaluation of the strength of the salty taste for 2 seconds after placing in the mouth, and the “middle and after taste” is a combination of middle taste and after taste, which is the evaluation of the strength of the salty taste after 2 seconds from placing in the mouth.
# [1] = sensory evaluation FIG. 2 compared with FIG. 3
structure (smiles),measurement,setting,value
"O=C(NCCc1c[nH]c2ccc(O)cc12)c1c(O)cccc1O [Example 35, 2,6-dihydroxy-N-(2-(5-hydroxy-1H-indol-3-yl)ethyl)benzamide]",salty taste enhancing activity,"0.00005 to 0.0040 g/dl in distilled water containing sodium chloride 0.5 g/dl, n=5, FIG. 2",has a salty taste enhancing activity
same,concentration region in which salty taste enhancing effect and ENaC activation current began to show,[1],≤ 0.0001 g/dL
same,concentration region in which salty taste enhancing effect and ENaC activation current reach plateau,[1],exceeding 0.0010 g/dl
